Kd, EC50 and Ki data for one compound are collected here from patent US12012394B2, “Alpha-synuclein ligands” (Washington University, priority 2018, dated 2024).

The target in test [1] is Banner PD-seeded α-synuclein fibrils (Homo sapiens (Human), UniProt P37840). The test is described as follows: Homologous competition radioligand binding assay, PD-seeded fibrils. The following applies: 150 nM Banner PD seeded fibrils. On the procedure: The equilibrium dissociation constant (Kd) for a series of compounds was determined using direct radioactive competitive binding assays (homologous or heterologous) with either recombinant α-synuclein fibrils or brain tissue homogenates from AD cases.
Recombinant protein was produced in E. coli using protocols based on previously described methods for α-synuclein [Giasson, B. I., et al., “Mutant and wild type human alpha-synucleins assemble into elongated filaments with distinct morphologies in vitro,” 1999, J Biol. Chem., 274:7619-7622; Huang, C., et al., “A new method for purification of recombinant human alpha-synuclein in Escherichia coli,” 2005, Protein Expr Purif, 42:173-177; Yu, L., et al, “Synthesis and in vitro evaluation of á-synuclein ligands,” 2012, Bioorg. Med. Chem., 20:4625-4634] and tau [Li, W., et al., “Characterization of two VQIXXK motifs for tau fibrillization in vitro,” 2006, Biochemistry, 45:15692-15701]. BL21(DE3)RIL E. coli were transformed with a pRK172 bacterial expression plasmid containing the human α-synuclein coding sequence. […]. Overnight cultures were centrifuged at 3,900×g for 10 min at 25° C. and the bacterial pellets were resuspended by gentle vortexing in 20 ml osmotic shock buffer (30 mM Tris-HCl, 2 mM EDTA, 40% Sucrose, pH 7.2) and then incubated at room temperature for 10 min. The cell suspension was then centrifuged at 8,000×g for 10 min at 25° C. and the pellet was resuspended in 22.5 ml cold H2O before adding 9.4 μl 2 M MgCl2 to each tube. The suspension was incubated on ice for 3 min prior to centrifugation at 20,000×g for 15 min at 4° C. After the supernatant was transferred to a fresh tube, streptomycin was added to a final concentration of 10 mg/ml and centrifuged at 20,000×g for 15 min at 4° C. The supernatant from this step was collected and dithiothreitol (DTT) and Tris-HCl pH 8.0 were added to final concentrations of 1 mM and 20 mM respectively, before boiling for 10 min to precipitate heat-sensitive proteins, which were pelleted at 20,000×g for 15 min at 4° C. The supernatant was collected and filtered through a 0.45 μm surfactant-free cellulose acetate filter (Corning) before loading onto a 1 ml DEAE Sepharose column equilibrated in 20 mM Tris-HCl pH 8.0, 1 mM EDTA, and 1 mM DTT. The DEAE column was washed with 20 mM Tris-HCl pH 8.0, 1 mM EDTA, 1 mM DTT before eluting α-synuclein protein in 20 mM Tris-HCl pH 8.0 buffer with 1 mM EDTA, 1 mM DTT and 0.3 M NaCl. Purified α-synuclein protein was dialyzed overnight in 10 mM Tris-HCl pH 7.6, 50 mM NaCl, 1 mM DTT.
Purified recombinant α-synuclein monomer (2 mg/ml) was incubated in 20 mM Tris-HCl, pH 8.0, 100 mM NaCl for 72 h at 37 C with shaking at 1000 rpm in an Eppendorf Thermomixer. […] The concentration of α-synuclein monomer in the supernatant was determined in a BCA protein assay according to the manufacturer's instructions, using a bovine serum albumin (BSA) standard curve. The measured decrease in α-synuclein monomer concentration was used to determine the concentration of fibrils in the 72 h fibril reaction mixture. […]
These direct binding assays used a fixed concentration of either fibrils or PD/AD tissue and the radioligand (e.g., [^18F]28) and varying concentration ranges of corresponding homologous non-radiolabeled standard reference compound. […] Reactions were incubated at 37° C. for 1 h before quantifying bound radioligand. […]

A further test addresses PD-seeded fibrils (Homo sapiens (Human), UniProt P37840). The test is described as follows: Heterologous competition binding assay with [18F]TZ61-44 as radioligand. Conditions: radioligand [18F]TZ61-44, 25 nM PD-seeded fibrils. On the procedure:
The equilibrium inhibitor constant (Ki) of a series of compounds was measured using heterologous radioactive binding assays with [^18F]TZ61-44, […], or [^125I]TZ61-84 as the screening radioligands. EC50 values for each compound were determined by fitting the data to the equation Y=Bottom+(Top−Bottom)/(1+(X−Log EC50)^−Hillcoefficient) using nonlinear regression by Kaleidagraph software, where Top and Bottom are the Y values for the top and bottom plateaus of the binding curve. The Ki values were derived from the EC50 values using the Cheng-Prusoff equation: Ki=EC50/(1+[radioligand]/Kd). FIGS. 5A-5E show the inhibition curves for TG-1-90B, TZ55-101, TZ61-84, TZ55-107, and TZ55-81 using [^18F]TZ61-44 as the radioligand. FIG. 11B-C show the inhibition curves for two separate experiments on PD fibrils for TZ55-101 using […] as the radioligand. FIGS. 12A-12F show the inhibition curves for TZ66-3, TZ64-015, TZ64-016, TZ64-018, TZ64-019, and TZ64-020 using [^18F]TZ61-44 as the radioligand. FIGS. 13A-13D show the inhibition curves for TZ66-9, TZ66-8, and TZ55-107 using [^18F]TZ61-44 as the radioligand.

Usually Kd stands for the constant that tells how readily two partners part at equilibrium. As usually defined, the EC50 is the concentration giving half of the maximal effect. Higher therefore signals a need for much substance. A word on the Ki: it is a measure of affinity in units of concentration, obtained from inhibition or displacement. Read a low Ki as higher affinity. On to `COc1ccc2nc(-c3csc(C=O)c3)ccc2c1` [TZ55-81], for which the dissociation constant (Kd) in test [1] amounted to 29 nM. Also, at PD-seeded fibrils, the EC50 came out at 46 nM. In addition, on PD-seeded fibrils (Cheng-Prusoff from EC50), the Ki is 43 nM.
